We go through 82 compounds from PubChem BioAssay AID514 (SGCOxCompounds, 2006).

For this experiment, the target named is STE20-like serine/threonine-protein kinase (Homo sapiens) (UniProt Q9H2G2). In words: SLK binders by thermal stabilization, biophysical, purified human kinase, DSF (AID 514). The following applies: differential scanning fluorimetry Tm shift, at 10 µM, protein 2 µM, buffer 10 mM HEPES, pH 7.5, NaCl 150 mM, hits give high values.
STE20-like serine/threonine-protein kinase (Homo sapiens), sequence (Q9H2G2 whole entry, looked up): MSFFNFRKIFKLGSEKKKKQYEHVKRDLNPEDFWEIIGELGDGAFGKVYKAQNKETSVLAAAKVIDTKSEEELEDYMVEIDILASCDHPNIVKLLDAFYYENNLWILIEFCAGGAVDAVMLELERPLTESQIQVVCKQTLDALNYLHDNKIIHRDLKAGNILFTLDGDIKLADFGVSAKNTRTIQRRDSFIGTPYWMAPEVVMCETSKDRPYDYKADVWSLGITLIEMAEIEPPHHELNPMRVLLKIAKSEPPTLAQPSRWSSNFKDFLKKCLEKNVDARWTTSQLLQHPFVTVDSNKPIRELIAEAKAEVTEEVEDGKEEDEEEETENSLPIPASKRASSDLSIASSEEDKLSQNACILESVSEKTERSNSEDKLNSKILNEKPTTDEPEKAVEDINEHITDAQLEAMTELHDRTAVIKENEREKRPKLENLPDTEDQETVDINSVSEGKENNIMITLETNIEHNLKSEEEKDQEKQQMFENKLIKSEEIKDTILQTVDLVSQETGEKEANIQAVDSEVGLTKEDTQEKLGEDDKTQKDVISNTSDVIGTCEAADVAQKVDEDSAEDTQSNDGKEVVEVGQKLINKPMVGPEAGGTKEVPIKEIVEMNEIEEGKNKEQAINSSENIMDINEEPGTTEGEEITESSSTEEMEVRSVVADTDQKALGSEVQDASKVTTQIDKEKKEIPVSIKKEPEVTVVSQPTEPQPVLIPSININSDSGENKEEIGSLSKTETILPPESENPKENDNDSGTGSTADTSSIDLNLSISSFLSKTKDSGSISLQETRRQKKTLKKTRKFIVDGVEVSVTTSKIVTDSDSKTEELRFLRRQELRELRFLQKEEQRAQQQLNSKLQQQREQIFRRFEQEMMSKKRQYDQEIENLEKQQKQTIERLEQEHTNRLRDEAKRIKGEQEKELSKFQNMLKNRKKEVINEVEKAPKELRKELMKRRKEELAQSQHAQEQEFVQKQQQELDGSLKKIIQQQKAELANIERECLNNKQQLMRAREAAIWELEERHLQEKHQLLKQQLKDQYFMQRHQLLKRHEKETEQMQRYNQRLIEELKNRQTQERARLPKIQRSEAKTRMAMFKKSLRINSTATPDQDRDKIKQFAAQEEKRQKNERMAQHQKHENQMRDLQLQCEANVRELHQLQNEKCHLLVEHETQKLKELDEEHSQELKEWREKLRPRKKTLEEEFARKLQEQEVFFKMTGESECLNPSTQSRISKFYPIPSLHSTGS

For the compound `Clc1cccc(Nc2ccn3ncc(-c4ccc5c(c4)OCO5)c3n2)c1`, the Tm shift was 3.7 C.

For the compound `O=Nc1c(-c2c(O)[nH]c3cc(Br)ccc23)[nH]c2ccccc12`, the Tm shift is 4.6 C.

With `COc1cc2ncnc(Nc3ccc(NC(=O)c4ccccc4)cc3)c2cc1OC`, the Tm shift was 5.5 C.

For the compound `Oc1ccc(-c2nc(-c3ccc(F)cc3)c(-c3ccncc3)[nH]2)cc1`, the Tm shift is 4.4 C.

Regarding `CCC(CO)Nc1ccc2ncc(-c3cccc(OC(F)(F)F)c3)n2n1` (configuration not stated), the Tm shift is 3.6 C.

Take `O=C(Nc1cccc(Nc2cc(Nc3cccc(C(F)(F)F)c3)ncn2)c1)C1CC1`: the Tm shift is 3.4 C.

For the compound `COc1ccc(C(=O)c2sc(Nc3cccc(C(F)(F)F)c3)nc2N)cc1`, the Tm shift was 4.5 C.

For the compound `Clc1cccc(-c2cnc3ccc(NCCc4ccccn4)nn23)c1`, the Tm shift was 3.5 C.

For `CC(C)(C)n1nc(-c2ccc(Cl)cc2)c2c(N)ncnc21`, the Tm shift is 3.6 C.

Turning to `O=C(c1ccc(Nc2nccc(-c3cc4ccccc4s3)n2)cc1)N1CCC(N2CCCC2)CC1`, the Tm shift was 7.3 C.

With `Nc1ncnc2c1c(I)cn2[C@@H]1O[C@H](CO)C(O)C1O` (some centres not stated), the Tm shift was 4.2 C.

On to `N=C(N)SCCCn1cc(C2=C(c3c[nH]c4ccccc34)C(=O)NC2=O)c2ccccc21`, for which the Tm shift was 10.6 C.

As to `O=c1c(O)c(-c2ccc(O)c(O)c2)oc2cc(O)cc(O)c12`, the Tm shift was 5.7 C.

`COc1cncc(-c2cnc3ccc(NC4CCOCC4)nn23)c1`: the Tm shift was 3.4 C.

With `Cn1cc(C2=C(c3c4n(c5ccccc35)CCC(CN)C4)C(=O)NC2=O)c2ccccc21` (configuration not stated), the Tm shift was 4.5 C.

On to `COc1cc(/C=C/C(=O)CC(=O)/C=C/c2ccc(O)c(OC)c2)ccc1O`, for which the Tm shift is 3.2 C.

For `CCC(CO)Nc1ccc2ncc(-c3ccc(F)c(Cl)c3)n2n1` (configuration not stated), the Tm shift was 3.8 C.

As to `COc1cc2ncnc(Nc3cccc(Br)c3)c2cc1OC`, the Tm shift is 6.9 C.

Turning to `Nc1cc2ncnc(Nc3cccc(Br)c3)c2cc1N`, the Tm shift was 5.7 C.

With `Oc1ccc(Nc2nccn3c(-c4cn[nH]c4)cnc23)cc1`, the Tm shift is 4.7 C.

Take `NC(=O)Nc1sc(-c2ccccc2)cc1C(N)=O`: the Tm shift was 3.5 C.

As to `CC(C)[C@@H](CO)Nc1ccc2ncc(-c3ccc(C#N)cc3)n2n1`, the Tm shift is 3.7 C.

On to `CC(C)[C@@H](CO)Nc1ccc2ncc(-c3cccc(C(F)(F)F)c3)n2n1`, for which the Tm shift was 4.8 C.

For `CC(C)[C@@H](CO)Nc1ccc2ncc(-c3cccc(O)c3)n2n1`, the Tm shift is 4.5 C.

As for `COc1ccc(Nc2nc(N)c(C(=O)c3ccc(Cl)cc3)s2)cc1`, the Tm shift is 4.4 C.

Regarding `O=Nc1c(-c2c(O)[nH]c3ccc(I)cc23)[nH]c2ccccc12`, the Tm shift is 3.7 C.

Turning to `CC(C)C(CO)Nc1nc(Nc2cc(N)cc(Cl)c2)c2ncn(C(C)C)c2n1` (configuration not stated), the Tm shift was 6.2 C.

For `Fc1ccc(-c2cnc3ccc(NC4CCOCC4)nn23)cc1`, the Tm shift was 3.6 C.

With `COc1cccc(-c2cnn3ccc(Nc4cccc(Cl)c4)nc23)c1`, the Tm shift was 4.7 C.

For `CCN(CC)CCNC(=O)c1c(C)[nH]c(/C=C2\C(=O)Nc3ccc(Cl)cc32)c1C`, the Tm shift is 7.5 C.

`c1ccc(-c2cnc3ccc(NCc4ccco4)nn23)cc1`: the Tm shift was 3.1 C.

Regarding `CC(C)[C@@H](CO)Nc1ccc2ncc(-c3cccc(Cl)c3)n2n1`, the Tm shift is 4.7 C.

Regarding `COc1ccc(Cl)cc1NC(=O)Nc1cc(C)nc2ccccc12`, the Tm shift was 3.4 C.

Take `Cn1cc(/C=C2\C(=O)Nc3ccc(S(N)(=O)=O)cc32)c2ccccc21`: the Tm shift was 5 C.

For the compound `NCCNc1ncc(C(N)=O)c(Nc2cccc(C(F)(F)F)c2)n1`, the Tm shift is 3.3 C.

As to `Oc1cccc(-c2cnc3ccc(NC4CCOCC4)nn23)c1`, the Tm shift was 4.6 C.

As for `ON(O)c1ccc(-c2nc(-c3ccc(F)cc3)c(-c3ccncc3)[nH]2)cc1`, the Tm shift was 5.4 C.

Regarding `Cc1[nH]c(/C=C2\C(=O)Nc3ccc(S(=O)(=O)N(C)c4cccc(Cl)c4)cc32)c(C)c1C(=O)N1CCN(C)CC1`, the Tm shift was 7.7 C.

For `Nc1cccc(-c2cnn3ccc(Nc4cccc(Cl)c4)nc23)c1`, the Tm shift was 3.7 C.

As for `CCn1cnc2c(Nc3cccc(Cl)c3)nc(N[C@@H]3CCCC[C@@H]3N)nc21`, the Tm shift was 6.4 C.

`COc1c(C=O)c(O)cc2c1C(=O)c1ccccc1C2=O`: the Tm shift is 5.4 C.

With `CN(C)CCCn1cc(C2=C(c3c[nH]c4ccccc34)C(=O)NC2=O)c2ccccc21`, the Tm shift was 6.8 C.

Turning to `Nc1ccc(-c2cnn3ccc(Nc4cccc(Cl)c4)nc23)cc1`, the Tm shift is 4 C.

In the case of `COc1ccccc1-c1cnc2[nH]c(=O)n(C3CCCC3)c2n1`, the Tm shift was 3.3 C.

As to `CC(C)[C@@H](CO)Nc1ccc2ncc(-c3cccc(F)c3)n2n1`, the Tm shift was 4.2 C.

With `O=C1Nc2ccccc2/C1=C/c1ccc[nH]1`, the Tm shift was 3.1 C.

As to `Fc1cccc(-c2cnc3ccc(NC4CCOCC4)nn23)c1`, the Tm shift was 4.1 C.

Consider `CN(C)S(O)(O)c1ccc2c(c1)/C(=C/c1cc3c([nH]1)CCCC3)C(=O)N2`, for which the Tm shift is 6.2 C.

As to `NCCCn1cc(C2=C(c3c[nH]c4ccccc34)C(=O)NC2=O)c2ccccc21`, the Tm shift is 7.6 C.

For the compound `Nc1cccc(-c2cc3c(Oc4cccc(O)c4)ncnc3[nH]2)c1`, the Tm shift was 5.7 C.

With `Cn1c(O)c(C2=c3ccccc3=NC2=O)[nH]c1=S`, the Tm shift is 3.4 C.

On to `Clc1ccc(-c2cnc3ccc(NC4CCOCC4)nn23)cc1`, for which the Tm shift was 3.1 C.

On to `O=C1NCc2c1c1c3ccccc3[nH]c1c1[nH]c3ccccc3c21`, for which the Tm shift was 5.1 C.

`COc1cncc(-c2cnc3ccc(N[C@H](CO)C(C)C)nn23)c1`: the Tm shift is 3.1 C.

Take `O=C1Nc2ccccc2/C1=C\c1cnc[nH]1`: the Tm shift was 3.3 C.

Take `COc1ccc2c(c1)/C(=C/c1cnc[nH]1)C(=O)N2`: the Tm shift is 3.3 C.

With `OCC(O)CCO/N=C1/C(c2c(O)[nH]c3ccccc23)=Nc2ccccc21` (configuration not stated), the Tm shift is 4.7 C.

For `O=C1Nc2ccc(Br)cc2/C1=C/c1cc2c([nH]1)CCCC2`, the Tm shift was 3.6 C.

Take `COc1cc2ncnc(Nc3cccc(O)c3)c2cc1OC`: the Tm shift was 3.2 C.

Consider `CNC(=O)c1cc(Oc2ccc(NC(=O)Nc3ccc(C)c(C(F)(F)F)c3)cc2)ccn1`, for which the Tm shift was 8 C.

`COc1ccc(Nc2nc(N)c(C(=O)c3ccc(OC)cc3)s2)cc1`: the Tm shift was 3.9 C.

In the case of `Nc1nc(Nc2cccc(Cl)c2)sc1C(=O)c1ccc(F)cc1`, the Tm shift was 3.7 C.

Regarding `Oc1cccc(-c2cnc3ccc(NCC4CC4)nn23)c1`, the Tm shift is 3.2 C.

As for `N#Cc1cnc2cnc(NCc3cccnc3)cc2c1Nc1ccc(F)c(Cl)c1`, the Tm shift is 6.1 C.

In the case of `CCCNC(=O)Nc1ccc(Oc2ncnc3cc(OC)c(OC)cc23)cc1Cl`, the Tm shift is 5.8 C.

Regarding `Cc1cc(Nc2nc(-c3ccccc3)nc3ccccc23)n[nH]1`, the Tm shift was 6.4 C.

On to `CCOc1cc2ncnc(Nc3cccc(Br)c3)c2cc1OCC`, for which the Tm shift was 7.9 C.

Consider `CC(C)(C)n1nc(-c2cccc3ccccc23)c2c(N)ncnc21`, for which the Tm shift is 6.1 C.

Regarding `FC(F)(F)Oc1cccc(-c2cnc3ccc(NC4CCOCC4)nn23)c1`, the Tm shift was 3.6 C.

Consider `O=C(Nc1cccc(Nc2nccc(Nc3cccc(C(F)(F)F)c3)n2)c1)C1CC1`, for which the Tm shift is 3.7 C.

`c1csc(-c2cnc3ccc(NCC4CC4)nn23)c1`: the Tm shift was 3.3 C.

For the compound `CC(O)(O)C1(O)C[C@@H]2O[C@@]1(C)n1c3ccccc3c3c4c(c5c6ccccc6n2c5c31)C(=O)NC4` (some centres not stated), the Tm shift is 6.3 C.

For `Nc1nc(Nc2ccc(S(N)(=O)=O)cc2)nn1C(=S)Nc1c(F)cccc1F`, the Tm shift was 12.1 C.

Consider `CC(=O)c1cccc(-c2cnc3ccc(N[C@H](CO)C(C)C)nn23)c1`, for which the Tm shift was 3.7 C.

For `CN(C)CC1CCn2c(c(C3=C(c4cn(C)c5ccccc45)C(=O)NC3=O)c3ccccc32)C1` (configuration not stated), the Tm shift was 4.2 C.

For the compound `CCC(CO)Nc1ccc2ncc(-c3ccc(O)cc3)n2n1` (configuration not stated), the Tm shift is 3.7 C.

Regarding `O=C1NC(=O)C(c2c[nH]c3ccccc23)=C1c1c[nH]c2ccccc12`, the Tm shift is 4.6 C.

As for `O=Nc1c(-c2c(O)[nH]c3ccccc23)[nH]c2ccccc12`, the Tm shift is 3.9 C.

In the case of `Cc1nc(N)sc1-c1ccnc(Nc2cccc(-n3oo3)c2)n1`, the Tm shift was 3.6 C.

`O=C1NC(=O)C(c2cn(CCCn3ccnc3)c3ccccc23)=C1Nc1ccccc1`: the Tm shift was 6.3 C.

On to `CC(C)[C@@H](CO)Nc1ccc2ncc(-c3cccc(OC(F)(F)F)c3)n2n1`, for which the Tm shift was 4.3 C.

With `Clc1cccc(-c2cnc3ccc(NC4CCOCC4)nn23)c1`, the Tm shift was 3.9 C.
